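The compound was tested at five concentrations on cells cultured in 96-well plates, with a 48-hour exposure period. GI50 is the concentration that inhibits growth by half.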 Calls of active or inactive are those of the source. Cut-off read from the data, not from the text of the source: active = GI50 up to about 1.1 µM and inactive = higher.
Tests used:
Assay in all cases: DTP human tumour cell line panel, 48 h
KM12 = test system: KM12
OVCAR-8 = test system: OVCAR-8
BT-549 = test system: BT-549
K562 = test system: K562
OVCAR-3 = test system: OVCAR-3
OVCAR-5 = test system: OVCAR-5
SN12C = test system: SN12C
COLO 205 = test system: COLO 205
HCC 2998 = test system: HCC 2998
NCI-H23 = test system: NCI-H23
NCI-H460 = test system: NCI-H460
HT-29 = test system: HT-29
CCRF-CEM = test system: CCRF-CEM
LOX IMVI = test system: LOX IMVI
HL-60 = test system: HL-60
MCF7 = test system: MCF7
SK-OV-3 = test system: SK-OV-3
HOP-62 = test system: HOP-62
SR = test system: SR

Measured: GI50

C=CCC1=CC2(OC)C(=O)C(OC)(OC)C1C1C(OC)(OC)C(=O)C(OC)=CC12CC=C (configuration not stated)
inactive: KM12 > 100 µM | OVCAR-8 > 100 µM | BT-549 49.9 µM | K562 > 100 µM | OVCAR-3 > 100 µM | OVCAR-5 > 100 µM | SN12C > 100 µM | COLO 205 > 100 µM | HCC 2998 > 100 µM | NCI-H23 > 100 µM | NCI-H460 > 100 µM | HT-29 > 100 µM | CCRF-CEM > 100 µM | LOX IMVI > 100 µM | HL-60 > 100 µM | MCF7 > 100 µM | SK-OV-3 67.8 µM | HOP-62 > 100 µM

CCOC(=O)c1cc2cc(CSc3ccccc3)ccc2oc1=O
inactive: KM12 > 100 µM | OVCAR-8 > 100 µM | BT-549 > 100 µM | K562 82.2 µM | OVCAR-3 96.6 µM | OVCAR-5 > 100 µM | SN12C > 100 µM | COLO 205 > 100 µM | HCC 2998 42.6 µM | NCI-H23 > 100 µM | NCI-H460 > 100 µM | HT-29 > 100 µM | CCRF-CEM > 100 µM | LOX IMVI > 100 µM | MCF7 90.2 µM | SK-OV-3 > 100 µM | HOP-62 51.3 µM | SR > 100 µM

C[n+]1cc2cc(O)c(O)cc2c2ccc3cc(O)c(O)cc3c21.c1ccncc1
inactive: KM12 3.96 µM | OVCAR-8 3.1 µM | BT-549 2.26 µM | K562 1.71 µM | OVCAR-3 2.37 µM | OVCAR-5 6.24 µM | SN12C 2.96 µM | COLO 205 10.3 µM | HCC 2998 3.92 µM | NCI-H23 2.42 µM | NCI-H460 2.86 µM | HT-29 3.3 µM | CCRF-CEM 1.17 µM | LOX IMVI 2.61 µM | MCF7 2.09 µM | SK-OV-3 4.33 µM | HOP-62 2.12 µM | SR 2.09 µM

CN(C)c1ccc(/C=C2\C[C@H]3[C@@H]4CC=C5C[C@@H](O)CC[C@]5(C)[C@H]4CC[C@]3(C)C2=O)cc1
inactive: KM12 38.5 µM | OVCAR-8 4.88 µM | BT-549 53.5 µM | K562 32.8 µM | OVCAR-3 24.8 µM | OVCAR-5 17.9 µM | SN12C 20.9 µM | COLO 205 23.7 µM | NCI-H23 25.6 µM | NCI-H460 15.8 µM | HT-29 16.3 µM | LOX IMVI 13.2 µM | HL-60 > 100 µM | MCF7 30.5 µM | SK-OV-3 25.8 µM | HOP-62 13.2 µM | SR 29.1 µM

O=[N+]([O-])c1nccn1CCCNc1c2ccccc2[n+]([O-])c2ccccc12
inactive: KM12 > 100 µM | OVCAR-8 > 100 µM | BT-549 > 100 µM | K562 > 100 µM | OVCAR-3 > 100 µM | OVCAR-5 > 100 µM | SN12C > 100 µM | COLO 205 18.2 µM | NCI-H23 > 100 µM | NCI-H460 51.3 µM | HT-29 43.6 µM | CCRF-CEM > 100 µM | LOX IMVI > 100 µM | HL-60 > 100 µM | MCF7 > 100 µM | SK-OV-3 > 100 µM | HOP-62 > 100 µM | SR > 100 µM

O=C(NCc1cccs1)OC1CC2CCC1C2 (configuration not stated)
inactive: KM12 > 100 µM | OVCAR-8 > 100 µM | BT-549 > 100 µM | K562 > 100 µM | OVCAR-3 > 100 µM | OVCAR-5 > 100 µM | SN12C > 100 µM | COLO 205 > 100 µM | NCI-H23 > 100 µM | NCI-H460 > 100 µM | HT-29 > 100 µM | CCRF-CEM > 100 µM | LOX IMVI > 100 µM | HL-60 > 100 µM | MCF7 > 100 µM | SK-OV-3 > 100 µM | HOP-62 > 100 µM | SR > 100 µM

CCOC(=O)C1NCCc2c1[nH]c1ccccc21 (configuration not stated)
inactive: KM12 > 10 µM | OVCAR-8 > 10 µM | BT-549 > 10 µM | K562 > 10 µM | OVCAR-3 > 10 µM | SN12C > 10 µM | COLO 205 > 10 µM | HCC 2998 > 10 µM | NCI-H23 > 10 µM | HT-29 > 10 µM | CCRF-CEM > 10 µM | HL-60 > 10 µM | MCF7 > 10 µM | SK-OV-3 > 10 µM | HOP-62 > 10 µM | SR > 10 µM

CC1=NN(c2ccc(S(=O)(=O)O)cc2)C(=O)/C1=C/c1ccc(Cl)cc1.c1ccncc1
inactive: KM12 > 100 µM | OVCAR-8 > 100 µM | BT-549 > 100 µM | K562 > 100 µM | OVCAR-3 > 100 µM | OVCAR-5 > 100 µM | SN12C > 100 µM | COLO 205 > 100 µM | NCI-H23 > 100 µM | NCI-H460 > 100 µM | HT-29 > 100 µM | CCRF-CEM > 100 µM | LOX IMVI > 100 µM | HL-60 > 100 µM | MCF7 > 100 µM | SK-OV-3 > 100 µM | HOP-62 > 100 µM | SR > 100 µM

CC(=O)Oc1cc(-c2oc3cc(OC(C)=O)c(C4OC(CO)C(O)C(O)C4O)c(OC(C)=O)c3c(=O)c2O)c(OC(C)=O)cc1O (configuration not stated)
inactive: KM12 > 100 µM | OVCAR-8 > 100 µM | BT-549 > 100 µM | K562 > 100 µM | OVCAR-3 > 100 µM | OVCAR-5 > 100 µM | SN12C > 100 µM | COLO 205 > 100 µM | HCC 2998 > 100 µM | NCI-H23 > 100 µM | NCI-H460 > 100 µM | HT-29 > 100 µM | CCRF-CEM 89.9 µM | LOX IMVI > 100 µM | HL-60 > 100 µM | MCF7 > 100 µM | SK-OV-3 > 100 µM | HOP-62 > 100 µM

CCN(CC)/C(Sc1ccccc1)=C(\C(Cl)=C(Cl)Cl)[N+](=O)[O-]
inactive: KM12 17.7 µM | OVCAR-8 17.2 µM | BT-549 15.8 µM | K562 10.8 µM | OVCAR-3 16.4 µM | SN12C 17.9 µM | COLO 205 16.4 µM | HCC 2998 19.5 µM | NCI-H23 13.7 µM | NCI-H460 21.7 µM | HT-29 21.5 µM | CCRF-CEM 4.99 µM | LOX IMVI 11 µM | HL-60 1.81 µM | MCF7 14.9 µM | SK-OV-3 33.4 µM | HOP-62 23.5 µM

COc1c(Cl)ccc(Cl)c1-c1nnc(-c2c(Cl)c(Cl)c(Cl)c(Cl)c2-c2nc3cc(C(=O)c4ccccc4)ccc3[nH]2)o1
inactive: KM12 45.5 µM | OVCAR-8 > 100 µM | BT-549 76.7 µM | K562 28.9 µM | OVCAR-3 53.2 µM | OVCAR-5 > 100 µM | SN12C 64.7 µM | COLO 205 21.9 µM | NCI-H23 78.2 µM | HT-29 57.8 µM | CCRF-CEM 24.9 µM | LOX IMVI 54.1 µM | HL-60 34.5 µM | MCF7 31.6 µM | SK-OV-3 > 100 µM | HOP-62 43.5 µM | SR 25.4 µM

Cc1ccc(C(=O)Nc2ccc(CP(=O)(O)O)cc2CP(=O)(O)O)cc1NC(=O)Nc1cc(C(=O)Nc2ccc(CP(=O)(O)O)cc2CP(=O)(O)O)ccc1C
inactive: KM12 > 100 µM | OVCAR-8 > 100 µM | BT-549 > 100 µM | K562 > 100 µM | OVCAR-3 > 100 µM | OVCAR-5 > 100 µM | SN12C > 100 µM | COLO 205 > 100 µM | HCC 2998 > 100 µM | NCI-H23 > 100 µM | NCI-H460 > 100 µM | HT-29 > 100 µM | CCRF-CEM > 100 µM | LOX IMVI > 100 µM | HL-60 > 100 µM | MCF7 60.5 µM | SK-OV-3 > 100 µM | HOP-62 > 100 µM

CC/C(Cl)=N\OC(=O)Nc1ccc(OC)cc1
inactive: KM12 15.1 µM | OVCAR-8 15 µM | BT-549 1.6 µM | K562 1.98 µM | OVCAR-3 5.68 µM | OVCAR-5 6.11 µM | SN12C 6.55 µM | COLO 205 2.11 µM | HCC 2998 5.58 µM | NCI-H23 15.4 µM | NCI-H460 20.2 µM | HT-29 6.05 µM | CCRF-CEM 1.75 µM | LOX IMVI 2.03 µM | HL-60 1.85 µM | MCF7 5.77 µM | SK-OV-3 17.5 µM | HOP-62 16.5 µM

CC(=O)NNC(=S)N/C=C1/C(=O)C=C(C)OC1=O
inactive: KM12 > 100 µM | OVCAR-8 > 100 µM | BT-549 > 100 µM | OVCAR-3 > 100 µM | OVCAR-5 > 100 µM | SN12C > 100 µM | COLO 205 > 100 µM | HCC 2998 > 100 µM | NCI-H23 > 100 µM | NCI-H460 > 100 µM | HT-29 > 100 µM | LOX IMVI > 100 µM | HL-60 > 100 µM | MCF7 > 100 µM | SK-OV-3 > 100 µM | HOP-62 > 100 µM

S=C(Nc1ccc2c(c1)oc1ccccc12)c1cccnc1
inactive: KM12 > 100 µM | OVCAR-8 26.2 µM | BT-549 37.1 µM | OVCAR-3 22 µM | OVCAR-5 55.8 µM | SN12C > 100 µM | COLO 205 > 100 µM | HCC 2998 > 100 µM | NCI-H23 24.5 µM | NCI-H460 24.6 µM | HT-29 > 100 µM | CCRF-CEM > 100 µM | LOX IMVI > 100 µM | MCF7 40.9 µM | SK-OV-3 20.4 µM | HOP-62 17.1 µM | SR > 100 µM

Source: ChEMBL document CHEMBL1201862, “PubChem BioAssay data set” (2004)
